The results in this text go back to US20240166703A1, “ANTI-INFLAMMATORY PEPTIDE AND METHOD OF USE THEREOF” (The Regents of the University of California, priority 2021, published 2024).

For test [1], the system named is NF-κB DNA binding in RAW 264.7 murine macrophage cells. The test can be described thus: EMSA of NF-κB DNA binding, nuclear lysates of LPS-treated RAW 264.7 cells. The test is classed as cell-based. The method, then:
(§1) To prepare nuclear and cytoplasmic protein extracts, HeLa, MEF, and RAW 264.7 cells were lysed in buffer containing 4.3 mM Na2HPO4, 1.47 mM KH2PO4 pH 7.4, 137 mM NaCl, 2.7 mM KCl, 1 mM DTT, 0.05% (v/v) NP-40, and 1×protease inhibitor cocktail for 10 minutes on ice and spun at 3,000 rpm at 4° C. for 10 minutes. The supernatant containing the cytoplasmic fraction was quantified by Bio-Rad protein assay to determine the total amount of protein. Pellets were resuspended in nuclear extraction buffer (25 mM Tris-HCl pH 7.5, 420 mM NaCl, 10% glycerol, 0.2 mM EDTA, 1 mM DTT, 0.5 mM PMSF, 1×protease inhibitor cocktail) once and then subjected to three lysis cycles (freeze at −80° C. and thaw at 37° C.). Finally, samples were centrifuged at 13,000 rpm at 4° C. for 20 minutes, and supernatants containing the soluble nuclear fraction were measured by the Bio-Rad protein assay to determine the total amount of protein. Nuclear and cytoplasmic extracts were aliquoted and kept at −80° C.
HeLa, MEF, RAW 264.7 cells were cultured in Dulbecco's MEM containing 10% fetal bovine […] supplemented with penicillin and streptomycin, at 37° C. in a humidity incubator with 5% CO2. RAW 264.7 cells were seeded and allowed to adhere for 24 hours then treated with NEMO^ActPep or NEMO^ActPep 6G at different concentrations 60 min before the LPS challenge (100 ng/ml). After 2 hours, nuclear and cytoplasmic extracts were collected. […]
Electrophoretic mobility shift assay (EMSA) was performed using recombinant full length NF-κB ReIA homodimer as a positive control as previously described (45). […] The amount of protein in lysates was quantified by Bio-Rad protein assay. EMSA analysis with quantitative densitometry and signal intensity was quantitated using ImageJ software. […]
It was then tested if the observed effect is universal across species and cell types. […] The effect of TAT-NEMO^ActPep on NF-κB DNA binding was also analyzed in MEF cells by EMSA.

Test [2] relates to canonical NF-κB signaling through IKK2 in RAW 264.7 murine macrophage cells. The test can be described thus: Western blot of canonical NF-κB signaling in LPS-treated RAW 264.7 cells. The note with it: 100 ng/mL LPS for 2 hours. Format: cell-based. The method, then: as §1
HeLa, MEF, RAW 264.7 cells were cultured in Dulbecco's MEM containing 10% fetal bovine […] supplemented with penicillin and streptomycin, at 37° C. in a humidity incubator with 5% CO2. RAW 264.7 cells were seeded and allowed to adhere for 24 hours then treated with NEMO^ActPep or NEMO^ActPep 6G at different concentrations 60 min before the LPS challenge (100 ng/ml). After 2 hours, nuclear and cytoplasmic extracts were collected. HeLa and MEF cells seeded for 24 hours then treated with NEMO^ActPep or NEMO^ActPep 6G at different concentrations 60 min before the TNF-α challenge (10 ng/ml) for 15 minutes and then nuclear and cytoplasmic extracts were collected. MEF cells were treated with NEMO^ActPep or NEMO^ActPep 6G at different concentrations 1 hour before the LTβR challenge (300 ng/ml). After 24 hours whole cell extracts were collected and aliquoted and kept at −80° C. for further experiments.
(§2) Equivalent amounts of protein from cell extracts was separated by SDS-PAGE and transferred to polyvinylidene fluoride (PVDF) membranes (Millipore, Bedford, MA, USA). The membrane was blocked with 5% bovine serum albumin (BSA) for 1 hour at room temperature and then the membrane was incubated with the primary antibodies overnight at 4° C. Antibodies for IKK2, His, HA, Myc, GST, Ubiquitin, IκBα, phospho-IKK2, p65/ReIA, p84, γ-Actin, p100/52, phospho-ERK, phospho-JNK, phospho-p38, ERK, JNK, and p38 were used for detecting multiple specific protein targets. After binding of an appropriate secondary antibody coupled to horseradish peroxidase, the immunoreactive bands were visualized by enhanced chemiluminescence substrate.
It was then tested if the observed effect is universal across species and cell types. The effect of TAT-NEMO^ActPep was tested in RAW 264.7 murine macrophage cells treated with 100 ng/mL purified bacterial lipopolysaccharide (LPS) for 2 hours. Again, NF-κB DNA binding and ReIA subunit nuclear localization were both inhibited as were phosphorylation of the IKK2 activation loop and degradation of IκBα. […] The effect of TAT-NEMO^ActPep on NF-κB DNA binding was also analyzed in MEF cells by EMSA.

In test [3] the test system is MAP kinases JNK, Erk2 and p38. The test can be described thus: Western blot of MAP kinase phosphorylation in TNF-α-treated HeLa cells. Format: cell-based, human. As to the method:
as §2
It was also tested if TAT-NEMO^ActPep has any effect on non-canonical NF-κB signaling. This alternative NF-κB signaling pathway is activated in response to stimulation of specific cytokine receptors and leads to activation of IKK1 and consequent processing of the p100 precursor to the mature NF-κB subunit p52 (30,31). […] To further investigate the possible involvement of TAT-NEMO^ActPep in other signaling pathways, the effect of the peptide on MAPK activation was tested by monitoring the phosphorylation status of JNK, Erk2, and p38 upon TNF-α treatment of HeLa cells. […]

Entries after “also recorded” stand apart in the source; their conditions may differ.

Take “TAT-NEMO^ActPep: HIV-1 TAT fused flexibly to human NEMO amino acids 375-391; cell permeable version of NEMO activation peptide (SEQ ID NO 2) (YGRKKRRQRRRGGLSSPLALPSQRRSPPEE)”: in test [1] (LPS-treated RAW 264.7 nuclear lysates, peptide 5-55 μM), the “NF-κB activity by EMSA relative to TAT-NEMO^ActPep 6G, compared with HeLa cells” value is “to a similar degree as that observed in HeLa cells”. Further, the “NF-κB DNA binding” value in test [1] (RAW 264.7 cells, 100 ng/mL LPS for 2 hours) was “inhibited”. Besides, in test [2], the “ReIA subunit nuclear localization (western blot)” value is “inhibited”, the “degradation of IκBα (western blot)” value is “inhibited” and the “phosphorylation of the IKK2 activation loop (western blot)” value is on record as “inhibited”. Also, the “phosphorylation of JNK, Erk2 and p38 MAP kinases (western blot)” value in test [3] is “Neither TAT-NEMO^ActPep nor TAT-NEMO^ActPep 6G influenced; also recorded: no effect”.
